From EP2767273A1, “Death-associated protein kinases, inhibitors and activators thereof for use in pharmaceutical compositions and in predictive medicine” (UNIVERSITÄTSKLINIKUM ERLANGEN, priority 2013, dated 2014)

Experiments:
STAT3 = STAT3 Y705 phosphorylation in HCEC cells (Western blotting); assay type: cell-based, human
Description: (§1) HCEC cells were kindly provided by Professor Steinberg Pablo (Institute for Food Toxicology and Analytical Chemistry, University of Veterinary Medicine Hannover, Germany) and maintained as previously described.^31 After 24 hours of seeding, cells were either stimulated with 0.66 ng/ml TNF (ImmunoTools) for various time points. For inhibitor experiments cells were pre-incubated for one to two hours with the corresponding inhibitors.
(§2) Protein concentration was measured in duplicates using Bio-rad Dc Protein Assay (BioRad Laboratories, Hercules, CA). Equal amounts of protein were separated by 10% or 12% SDS-PAGE using Laemmli buffer system. Proteins were transferred electrophoretically to nitrocellulose membrane (Millipore Corporation, Billerica, MA, USA) and detected as recently described^33 using following antibodies, anti-DAPK (BD Transduction Laboratories, Lexington NY), anti-pDAPK^S308 (Sigma), anti-STAT3, anti-pSTAT3^γ705, anti-caspase3 (Cell Signaling Technology Inc.), anti-ß-actin (Sigma), or anti-GAPDH (Abnova GmbH, Germany).

AOM-DSS tumors = test: AOM+DSS mouse model of colitis-associated tumors, treatment with DAPK-inhibitor; assay type: in vivo, mice
Description: as §2
Experimental colitis-associated tumorigenesis was performed as previously described.^43 In brief, 10mg/kg Azoxymethane (AOM; Sigma) was injected intraperitoneally into 6-8 week old C57BL/6J mice, followed by 3 cycles of DSS in drinking water. Each DSS-cycle was composed of DSS (2.5 % (w/v); MP Biomedicals) in drinking water for 7 days, followed by a recovery phase with regular drinking water for 14 days. All tumors were harvested at day 65-70.

IL-6 [1] = test: IL-6 secretion in HCEC cell culture supernatants (ELISA); assay type: cell-based, human; conditions: HCEC cells
Description: as §1
IL-6 and IL-8 secretion was analyzed by ELISA according to the manufacturer's instructions (BD Biosciences; Heidelberg, Germany). […] After blocking (300 µl 3% BSA in PBS, 2 hours, RT) and washing (0.1% Tween in PBS, (PBS-T), 100 µl of undiluted or diluted supernatant was added and incubated (2 hours, RT or overnight 4°C). Thereafter, wells were washed and incubated (1.5 hours, RT) with detection antibody (1:250 diluted in 1% BSA in PBS-T) + enzyme reagent (Streptavidin-horseradish peroxidase conjugate; 1:250 diluted in detection antibody). After washing, TMB (1:1) substrate was added to each well and incubated in a dark for 20-30 minutes. Reaction was stopped with stop solution (100 µl 1 M H2SO4) and absorption was measured using spectrophotometer (Victor X3, Perkin-elmer) at a wavelength of 450 nm with a wavelength correction at 570 nm.

IL-6 [2] = test: IL-6 mRNA expression in HCEC cells (real time RT-PCR); assay type: cell-based, human; conditions: AG490
Description: as §1
Expression of IL-6, IL-8, and DAPK mRNA were analyzed by real time RT-PCR. RNA isolation (mRNeasy RNA isolation kit) and cDNA synthesis (Quantitect reverse transcriptase kit) were performed according to the manufacturer's instructions (Qiagen, Hilden, Germany). 1 µl of cDNA was amplified in a thermal cycler (Biorad CFX-96) with corresponding primers in a total volume of 25 µl using Quantifast SYBR green kit (Qiagen) under the following conditions: 95°C for 5 minutes followed by 26-40 cycles of 95°C for 10 s and 60°C for 30 s. […] The results were expressed as fold induction compared to unstimulated cells after normalising to house-keeping gene. […]

DAPK [3] = test: DAPK protein expression/activation in HCEC cells (Western blotting); assay type: cell-based, human
Description: as §1, §2
Silencing of DAPK expression in HCEC cells was performed by the siRNA technique according to the manufacturer's instructions (Dharmacon, Chicago, IL, USA). […] At the end of the incubation period supernatants and cells were harvested and stored at -80°C until analyzed further. The knockdown efficiency was determined by Western blotting.

DAPK [4] = test: DAPK mRNA expression in HCEC cells (real time RT-PCR); assay type: cell-based, human; conditions: for DAPK mRNA enhanced: 7 µM Stattic + TNF, relative to TNF treatment
Description: as §1
Expression of IL-6, IL-8, and DAPK mRNA were analyzed by real time RT-PCR. RNA isolation (mRNeasy RNA isolation kit) and cDNA synthesis (Quantitect reverse transcriptase kit) were performed according to the manufacturer's instructions (Qiagen, Hilden, Germany). 1 µl of cDNA was amplified in a thermal cycler (Biorad CFX-96) with corresponding primers in a total volume of 25 µl using Quantifast SYBR green kit (Qiagen) under the following conditions: 95°C for 5 minutes followed by 26-40 cycles of 95°C for 10 s and 60°C for 30 s. The following primers were used, forward and reverse respectively: DAPK, 5'-[…]-3' and 5'-GATCCCGAGTGGCCAAA-3'; IL-6, 5'-[…]-3' and 5'-[…]-3'; IL-8, 5'-[…]-3' and 5'-[…]-3'; ß2microglobulin (house-keeping gene), 5'-[…]-3' and 5'-[…]-3'; murine DAPK, 5'-[…]-3' and 5'-[…]-3'; murine GAPDH (house-keeping gene), 5'-[…] -3' and 5'-[…] -3'. The results were expressed as fold induction compared to unstimulated cells after normalising to house-keeping gene. All primers were purchased from metabion (metabion international AG, Martinsried, Germany).

[5] = AOM-DSS tumors, treated mice vs untreated control mice

SMILES: O=C1OC(c2ccccc2)=N/C1=C\c1cccnc1 [DAPK inhibitor, (4Z)-2-phenyl-4-(pyridine-3-ylmethylidene)-4,5-dihydro-1,3-oxazol-5-one]
- STAT3Y705 phosphorylation (STAT3; 0.66 ng/ml TNF, 10 µM DAPK inhibitor, after 24, 48, and 72 hours): enhanced
- tumors in the gut (endoscopy) (AOM-DSS tumors; AOM-DSS mice, with vs without DAPK-inhibitor): less and smaller tumors
- tumor growth, atypia and architecture (immunohistochemical evaluation) (AOM-DSS tumors; AOM-DSS mice, untreated controls: non-invasive growth, low grade atypia, simple and tubular architecture): invasively growing, showed high grade atypia, and a complex, cribiform architecture
- NFκB inhibitor plκß in tumors (Western Blotting) (AOM-DSS tumors; [5]): up-regulated
- tumor suppressor p53 in tumors (Western Blotting) (AOM-DSS tumors; [5]): down-regulated
- TNF-induced IL-6 secretion (IL-6 [1]; 0.66 ng/ml TNF, 10 µM DAPK inhibitor, after 6 and 24 hours): significantly increased

SMILES: N#C/C(=C\c1ccc(O)c(O)c1)C(=O)NCc1ccccc1 [AG490, Tyrphostin AG 490]
- pSTAT3Y705 levels decreased (STAT3; 20 µM AG490 prior to TNF treatment): 35%
- TNF-induced IL-6 mRNA expression down-regulated (IL-6 [2]): 50%
- TNF-induced DAPK protein expression (DAPK [3]; 20 µM AG490 + TNF): elevated
- TNF-induced IL-6 secretion down-regulated (IL-6 [1]; AG490): 50%
- DAPK mRNA expression (DAPK [4]; 20 µM AG490 pre-treatment + TNF, after 72 hours): 3.3 fold

SMILES: O=[N+]([O-])c1ccc2c(c1)S(=O)(=O)C=C2 [Stattic]
- TNF-induced STAT3Y705 phosphorylation down-regulated (STAT3; 7 µM Stattic pre-treatment): up to 45%
- DAPK protein (DAPK [3]; 7 µM Stattic + TNF): enhanced
- DAPK mRNA enhanced (DAPK [4]; after 48 hours): 1-5 fold
- DAPK mRNA enhanced (DAPK [4]; after 72 hours): 2.8 fold
